What all share (assay type): cell-based, human
In one assay the test system is HepG2 cells. Briefly: Annexin V-FITC/PI dual staining apoptosis assay. How it is done: The extent of apoptosis induced by compound 9 in HepG2 cells was quantified by the FACS analysis. Cells were harvested after 48 h and analyzed for apoptosis percentage by flow cytometry.
[…] analysis in HepG2 cells was carried out by FACS analysis according to the manufacturer’s directions. See Section 3.3.4 in Supplementary Material.
Figure 4 Compound 9 induces apoptosis in HepG2 cells. (A) HepG2 cells were treated with 1.38 μM of compound 9 for 48 h. Cell apoptosis was quantized by Annexin V-FITC/PI dual staining assay using image-based cytometry. (B) The quantification of HepG2 cell apoptosis.
(§1) 3.3.1. Cytotoxic activity evaluation
To measure the cytotoxic activity of the synthesized derivatives 2a-11 in hepatocel-lular carcinoma (HepG2) cell line (ATCC Cat No. HB-8065) as well as normal human liver cell line HL-7702 (ATCC Cat. No. 77402), cell viability assay was assessed using MTT assay method. Cells at density of 1 x 104 were seeded in a 96-well plate at 37 °C for 24 h under 5% CO2. […] The color inten-sity of the formazan product, which represents the growth condition of the cells, is quan-tified by using an ELISA plate reader (EXL 800, USA) at 570 nm absorbance. […]
Compounds 9, 10 and 11 were evaluated for their tubulin inhibitory activity levels according to the manufacturer’s instructions using # abcam Human Beta-tubulin simplestep […]
Cell cycle analysis in HepG2 cells was investigated using fluorescent Annexin V-FITC/ PI detection kit (BioVision EZCellTM Cell Cycle Analysis Kit Catalog #K920) by flow cytometry assay. […] The samples were immediately analyzed using Facs Calibur flow cytometer (Becton and Dickinson, Heidelberg, Germany). […]
Apoptosis in HepG2 cells was investigated using fluorescent Annexin V-FITC/ PI de-tection kit (BioVision Annexin V-FITC Apoptosis Detection Kit, Catalog #: K101) by flow cy-tometry assay. […] The samples were immediately analyzed using FACS Calibur flow cytometer (Becton and Dickinson, Heidelberg, Germany).
3.3.5. […] The samples were immediately analyzed using cell […]

A further assay relates to Bax. Briefly: ELISA quantification of Bax level. The following applies: HepG2, 1.38 μM (IC50), 48 h. The procedure:
(§2) Compound 9 was screened for its ability to activate p53 and Bax as well as downregulate the level of Bcl-2 to investigate the mechanistic apoptotic pathway that catalyzed the apoptosis process. HepG2 cells were treated with compound 9 at a concentration equal to its IC50 in μM, and the level of p53, Bax, and Bcl-2 was quantized using ELISA analysis. The results obtained for compound 9 show the increase in the level of p53 and Bax by 8.91- and 4.50-fold, respectively, compared with the negative control samples.
(§3) Apoptotic markers (p53, Bax and Bcl-2) were measured in HepG2 cells using ELISA analysis according to the manufacturer’s directions. See Section 3.3.6 in Supplementary Material.
(§4) Figure 6 (A) The quantification of p53. (B) The quantification of Bax. (C) The quantification of Bcl-2. HepG2 cells were treated with 1.38 μM of compound 9 for 48 h and apoptotic markers were determined by ELISA assay.
as §1
(§5) To measure the cytotoxic activity of the synthesized derivatives 2a-11 in hepatocel-lular carcinoma (HepG2) cell line (ATCC Cat No. HB-8065) as well as normal human liver cell line HL-7702 (ATCC Cat. No. 77402), cell viability assay was assessed using MTT assay method. […] The color inten-sity of the formazan product, which represents the growth condition of the cells, is quan-tified by using an ELISA plate reader (EXL 800, USA) at 570 nm absorbance. […]

Another assay deals with Bcl-2. Briefly: ELISA quantification of Bcl-2 level. The conditions noted are these: HepG2, 1.38 μM (IC50), 48 h. The procedure:
as §2, §3, §4, §1, §5

The mark [1] stands for this setting: HepG2, IC50 concentration, 48 h.

This note sets out measurements from PMC9322052, “Synthesis and Biological Activity Screening of Newly Synthesized Trimethoxyphenyl-Based Analogues as Potential Anticancer Agents” (Molecules, 2022).

With `COc1ccc(C2=N/C(=C\c3cc(OC)c(OC)c(OC)c3)C(=O)NN2c2ccccc2)cc1OC` [Compound 9, (Z)-3-(3,4-Dimethoxyphenyl)-2-Phenyl-5-(3,4,5-Trimethoxybenzylidene)-1,2-Dihydro-1,2,4-Triazin-6(5H)-one], in the assay on HepG2 cells (HepG2), the “increase in Annexin-V-positive cells compared with untreated control” value was roughly 18 fold. For the same compound, in the assay on HepG2 cells (setting [1]), the “increase in percentage of early apoptosis compared with untreated control” value is given as 16.63 fold and the “increase in percentage of late apoptosis compared with untreated control” value amounted to 60.11 fold. For the same compound, the “increase in level of Bax compared with negative control” value with Bax is listed as 4.50 fold. For the same compound, the “decrease in level of Bcl-2 compared with negative control” value in the assay with Bcl-2 is given as 5.58 fold.
